Here are results for 1 compound from patent US7709636B2, “Pyrazole sulfonylurea compound and herbicide” (Nissan Chemical Industries, Ltd., priority 2004, dated 2010).

The subject of series [1] is Monochoria vaginalis. As to the kind of experiment: Herbicidal effect test in submerged condition by treatment before weed-generation (2). It is filed as in vivo. Particulars: 0.3 g/a; submerged paddy soil pot, water surface treated on day of sowing; 3 weeks after treatment. As to the method:
(§1) Herbicidal Effect Test in Submerged Condition by Treatment Before Weed-Generation (2)
(§2) Paddy surface soil was placed in a plastic pot of 1/10000 are, water was poured therein and mixed. After seeds of Scirpus juncoides were sown, paddy surface soil was added by 2 cm, and submerged with water, and then seeds of Echinochloa crus-galli, Scirpus juncoides, Monochoria vaginalis, Rotala indica and Lindernia pyxidaria were sown together. In addition, rice seedlings at 2.5th leaf stage were transplanted, and fixed to the paddy surface in a state where the roots were exposed on the other side. On the day when the seeds were sown, the wettable powder of the present invention prepared according to Formulation Example 1 was diluted with water so as to give a predetermined formulation amount, and the surface of the water was treated with the diluted wettable powder. The plants were grown by putting the pot in a green house at 25 to 30° C. The herbicidal effect for each plant was investigated 3 weeks after treatment with the herbicide according to the criteria indicated in Test Example 1.

Series [2] concerns Echinochloa crus-galli. The series is described as above. In kind it is in vivo. The settings on record: 0.3 g/a; submerged paddy soil pot, water surface treated on day of sowing; 3 weeks after treatment. As to the method:
as §1, §2

In another series the test system is Lindernia pyxidaria. The series is described as above. Particulars: 0.3 g/a; submerged paddy soil pot, water surface treated on day of sowing; 3 weeks after treatment. In kind it is in vivo. As to the method:
as §1, §2

The test system of series [3] is Scirpus juncoides. The series is described as above. The settings on record: 0.3 g/a; submerged paddy soil pot, water surface treated on day of sowing; 3 weeks after treatment. It is filed as in vivo. The procedure: as §1, §2
Series [4] concerns transplanted rice (Oryza sativa). Described as above. In kind it is in vivo. The settings on record: 0.3 g/a; submerged paddy soil pot, rice seedlings at 2.5th leaf stage transplanted; 3 weeks after treatment. As to the method: as §1, §2
The next series concerns Rotala indica. The series is described as above. In kind it is in vivo. The settings on record: 0.3 g/a; submerged paddy soil pot, water surface treated on day of sowing; 3 weeks after treatment. The procedure: as §1, §2
For series [5], the system named is transplanted rice (Oryza sativa). As to the kind of experiment: Crop injury test on rice in water leakage condition. Particulars: 0.15 g/a; water leakage 2 cm/day x 3 days; treated on third day after transplantation; 3 weeks after treatment. It is filed as in vivo. The procedure: Crop Injury Test on Rice in Water Leakage Condition A mixed soil of alluvial soil and diluvial soil was placed in a plastic pot perforated at the bottom of 1/10000 are, water was poured therein and mixed, and then rice seedlings at 2.5th leaf stage were transplanted. Water leakage treatment was carried out by placing the pot in a plastic vat, and controlling the amount of water in the vat kept at a condition of 2 cm/day×3 days. The pot was put in a green house at 25 to 30° C., on third day after transplantation, the wettable powder of the present invention prepared according to Formulation Example 1 was diluted with water so as to give a predetermined formulation amount, and the surface of the water was treated with the diluted wettable powder. The crop injury on rice was investigated 3 weeks after treatment with the herbicide according to the criteria indicated in Test Example 1.

Series [6] deals with rice transplanted at a depth of 0 cm. As to the kind of experiment: Herbicidal effect test in submerged condition by treatment before weed-generation (2). In kind it is in vivo, Oryza sativa. The settings on record: 0.3 g/a; submerged paddy soil pot, seedlings fixed to paddy surface with roots exposed; 3 weeks after treatment. As to the method:
as §1, §2

The subject of series [7] is Monochoria vaginalis. As to the kind of experiment: Herbicidal effect test in submerged condition by treatment during weed-growth stage (1). In kind it is in vivo. Particulars: 0.64 g/a, treated at 1st to 2nd leaf stage, 3 weeks after treatment. In short, it runs like this: (§3)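 Paddy-soil pots flooded to 4 cm water depth were sown and grown in a greenhouse at 25 to 30° C until weeds reached 1st to 2nd leaf stage. A wettable powder diluted in water to a predetermined formulation amount was applied to the water surface. Herbicidal effect was scored 3 weeks after treatment against set criteria.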

The subject of series [8] is Echinochloa crus-galli. The series is described as above. It is filed as in vivo. Particulars: 0.64 g/a, treated at 1st to 2nd leaf stage, 3 weeks after treatment. In short, it runs like this: as §3
Series [9] relates to Scirpus juncoides. Described as above. In kind it is in vivo. The settings on record: 0.64 g/a, treated at 1st to 2nd leaf stage, 3 weeks after treatment. In short, it runs like this: as §3
Series [10] has as its system Monochoria vaginalis. As to the kind of experiment: Herbicidal effect test in submerged condition by treatment before weed-generation (1). In kind it is in vivo. The settings on record: 0.64 g/a, water surface treated on day of sowing, 3 weeks after treatment. In short, it runs like this: (§4)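 Alluvial soil flooded to 4 cm depth; weeds sown and rice seedlings (2.5-leaf stage) transplanted, then wettable powder diluted in water applied to the water surface on sowing day. Greenhouse at 25 to 30° C; herbicidal effect scored 0–5 after 3 weeks (5 = ≥90% kill, 0 = ≤5%).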

For series [11], the system named is Echinochloa crus-galli. The series is described as above. It is filed as in vivo. The settings on record: 0.64 g/a, water surface treated on day of sowing, 3 weeks after treatment. In short, it runs like this: as §4
Series [12] concerns Scirpus juncoides. The series is described as above. It is filed as in vivo. The settings on record: 0.64 g/a, water surface treated on day of sowing, 3 weeks after treatment. In short, it runs like this: as §4

Regarding `COc1cc(OC)nc(NC(=O)NS(=O)(=O)c2c(C3=NOCCO3)c(Cl)nn2C)n1` [Comparative Compound 1], the “herbicidal effect, C: Monochoria vaginalis” value with Monochoria vaginalis [1], in the series with Monochoria vaginalis [7] and in the series on Monochoria vaginalis [10] was 5 (Herbicidal rate 90% or more (almost complete death)) each time. The “herbicidal effect, A: Echinochloa crus-galli” value in the series on Echinochloa crus-galli [2], with Echinochloa crus-galli [8] and in the series on Echinochloa crus-galli [11] was 5 (Herbicidal rate 90% or more (almost complete death)) in each case. Besides, in the series with Lindernia pyxidaria, the “herbicidal effect, O: Lindernia pyxidaria” value is listed as 5 (Herbicidal rate 90% or more (almost complete death)). Besides, the “herbicidal effect, B: Scirpus juncoides” value with Scirpus juncoides [3], in the series with Scirpus juncoides [9] and in the series on Scirpus juncoides [12] was 5 (Herbicidal rate 90% or more (almost complete death)) in each case. Besides, in [4], the “herbicidal effect, a: transplanted rice (Oryza sativa)” value is reported as 0 (Herbicidal rate 5% or less (little effect)). In addition, in the series with Rotala indica, the “herbicidal effect, N: Rotala indica” value is 5 (Herbicidal rate 90% or more (almost complete death)). Moreover, in [5], the “crop injury on rice, a: transplanted rice (Oryza sativa)” value is 3 (Herbicidal rate 40% or more and less than 70%). Also, the “herbicidal effect, g: rice transplanted at a depth of 0 cm” value in [6] was 3 (Herbicidal rate 40% or more and less than 70%).
